Laboratory results: publication PMC12621189, “Optimization of Selective and CNS Penetrant Alkyne-Based TREK Inhibitors: The Discovery and Characterization of ONO-9517601 (VU6022856) and ONO-7927846 (VU6024391)” (Journal of Medicinal Chemistry, 2025)
Values after ≈ are worked out from the molar mass of the structure shown.

What was measured:
[1] = Liver microsome intrinsic clearance, human; type: in vitro ADME; conditions: for CLint scaled at 1 µM: pH 7.4, human liver microsomes, predicted intrinsic clearance, read-out: LMS CLINT human; for Predicted CLhep human: from microsomal CLint
In short: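 Incubation in 100 mM potassium phosphate pH 7.4 with 3 mM MgCl2 at 37 °C, started with 1 mM NADPH after 5 min preincubation; sampled 0–45 min, quenched in acetonitrile, LC/MS/MS. Half-life from ln % remaining vs time; CLint scaled with 20 (human) or 45 (rat) factors, CLhep using Qh 21 (human) or 70 (rat) mL/min/kg.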

[2] = Rat in vivo PK (plasma clearance) in SAR tables; conditions: read-out: Rat CLp
hTREK-1 = target: T1, hTREK-1 (Homo sapiens, UniProt O95069); assay: hTREK-1 manual patch clamp assay; type: cell-based; conditions: human TREK-1, manual patch clamp; read-out: TREK-1 IC50 (human, MPC)
T1 construct: expressed in transfected cells
T1 sequence (O95069 1-426): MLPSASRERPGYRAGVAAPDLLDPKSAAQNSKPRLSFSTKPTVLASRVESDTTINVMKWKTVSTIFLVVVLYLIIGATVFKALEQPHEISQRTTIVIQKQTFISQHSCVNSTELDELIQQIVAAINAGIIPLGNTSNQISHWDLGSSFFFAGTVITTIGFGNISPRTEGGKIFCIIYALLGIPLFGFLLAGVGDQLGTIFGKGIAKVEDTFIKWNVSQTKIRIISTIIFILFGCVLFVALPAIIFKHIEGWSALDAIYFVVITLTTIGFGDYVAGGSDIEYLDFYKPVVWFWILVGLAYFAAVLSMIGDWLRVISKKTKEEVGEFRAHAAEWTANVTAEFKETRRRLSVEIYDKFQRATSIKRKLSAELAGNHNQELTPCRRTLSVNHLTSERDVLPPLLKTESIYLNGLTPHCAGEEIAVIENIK
Method: hTREK-1 and mTREK-1 patch clamp assay
CHO-K1 cells stably expressing hTREK-1 or CHO-K1 cells transiently expressing mouse TREK-1 (mTREK-1) were plated on glass coverslips, and voltage clamped in the whole-cell configuration of the patch clamp technique. Cells were voltage clamped at a holding potential of - 80 mV and the stepped to 0 mV for 500 msec. The voltage was subsequently ramped from -120mV to +80 mV over a 500 msec duration. This step-ramp protocol was repeated every 10 sec. The bathing solution contained the following: 135 mM NaCl, 5 mM KCl, 2 mM CaCl2, 1 mM MgCl2, 5 mM D-Glucose, 10 mM HEPES, 10 mM sucrose (adjusted to pH 7.4 with NaOH, 300 mosmol/kg H2O). The pipette solution contained the following: 135 mM KCl, 2 mM MgCl2, 1 mM EGTA, 10 mM HEPES, 2 mM Na2ATP (adjusted to pH 7.35 with KOH, 285 mosmol/kg H2O). Test […]
compounds were dissolved into the bathing solution. The effects of test compound on the currents were calculated at 0 mV using the following equations:
% inhibition = (1-post current/pre current) x 100
% inhibition vs compound concentrations were plotted in GraphPad Prism and calculated IC50. […]

HCN4 = HCN4 (Homo sapiens, UniProt Q9Y3Q4); assay: MPC ion channel panel, HCN4; type: cell-based
Chain of HCN4 (Q9Y3Q4 whole entry): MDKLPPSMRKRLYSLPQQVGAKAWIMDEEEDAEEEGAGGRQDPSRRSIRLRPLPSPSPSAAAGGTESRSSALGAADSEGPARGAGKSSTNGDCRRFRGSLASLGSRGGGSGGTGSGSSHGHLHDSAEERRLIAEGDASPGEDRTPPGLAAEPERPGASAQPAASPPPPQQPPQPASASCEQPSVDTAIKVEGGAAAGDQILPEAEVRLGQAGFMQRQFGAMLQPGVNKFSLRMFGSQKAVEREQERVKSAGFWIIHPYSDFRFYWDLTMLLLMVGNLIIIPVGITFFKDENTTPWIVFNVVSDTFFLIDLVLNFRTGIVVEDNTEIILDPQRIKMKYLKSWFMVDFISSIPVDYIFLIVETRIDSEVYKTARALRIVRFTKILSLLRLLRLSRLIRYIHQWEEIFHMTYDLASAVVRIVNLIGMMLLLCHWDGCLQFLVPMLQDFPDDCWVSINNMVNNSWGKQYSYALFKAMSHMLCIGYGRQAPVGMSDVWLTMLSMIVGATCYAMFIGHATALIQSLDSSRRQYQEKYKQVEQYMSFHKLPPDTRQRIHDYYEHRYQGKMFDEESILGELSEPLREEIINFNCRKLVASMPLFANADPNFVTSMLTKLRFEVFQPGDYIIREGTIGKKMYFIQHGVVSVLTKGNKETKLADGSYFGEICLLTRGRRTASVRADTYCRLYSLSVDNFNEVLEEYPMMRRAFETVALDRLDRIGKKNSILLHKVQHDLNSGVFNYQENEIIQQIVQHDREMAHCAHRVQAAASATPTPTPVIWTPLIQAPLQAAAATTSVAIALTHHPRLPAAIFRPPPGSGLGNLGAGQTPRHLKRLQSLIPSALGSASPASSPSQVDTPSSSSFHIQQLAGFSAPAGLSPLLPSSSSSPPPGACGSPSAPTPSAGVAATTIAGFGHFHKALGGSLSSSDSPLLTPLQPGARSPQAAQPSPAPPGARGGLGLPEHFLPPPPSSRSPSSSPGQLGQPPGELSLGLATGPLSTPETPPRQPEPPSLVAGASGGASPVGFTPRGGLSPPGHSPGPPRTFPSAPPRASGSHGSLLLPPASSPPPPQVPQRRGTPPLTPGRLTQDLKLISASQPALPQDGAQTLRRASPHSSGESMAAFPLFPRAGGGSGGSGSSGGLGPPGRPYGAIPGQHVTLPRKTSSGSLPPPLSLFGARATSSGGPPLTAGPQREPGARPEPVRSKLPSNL

in vivo = conditions: rat, po
hERG = hERG (Homo sapiens, UniProt Q12809); assay: Functional hERG inhibition; type: cell-based
Chain of hERG (Q12809 whole entry): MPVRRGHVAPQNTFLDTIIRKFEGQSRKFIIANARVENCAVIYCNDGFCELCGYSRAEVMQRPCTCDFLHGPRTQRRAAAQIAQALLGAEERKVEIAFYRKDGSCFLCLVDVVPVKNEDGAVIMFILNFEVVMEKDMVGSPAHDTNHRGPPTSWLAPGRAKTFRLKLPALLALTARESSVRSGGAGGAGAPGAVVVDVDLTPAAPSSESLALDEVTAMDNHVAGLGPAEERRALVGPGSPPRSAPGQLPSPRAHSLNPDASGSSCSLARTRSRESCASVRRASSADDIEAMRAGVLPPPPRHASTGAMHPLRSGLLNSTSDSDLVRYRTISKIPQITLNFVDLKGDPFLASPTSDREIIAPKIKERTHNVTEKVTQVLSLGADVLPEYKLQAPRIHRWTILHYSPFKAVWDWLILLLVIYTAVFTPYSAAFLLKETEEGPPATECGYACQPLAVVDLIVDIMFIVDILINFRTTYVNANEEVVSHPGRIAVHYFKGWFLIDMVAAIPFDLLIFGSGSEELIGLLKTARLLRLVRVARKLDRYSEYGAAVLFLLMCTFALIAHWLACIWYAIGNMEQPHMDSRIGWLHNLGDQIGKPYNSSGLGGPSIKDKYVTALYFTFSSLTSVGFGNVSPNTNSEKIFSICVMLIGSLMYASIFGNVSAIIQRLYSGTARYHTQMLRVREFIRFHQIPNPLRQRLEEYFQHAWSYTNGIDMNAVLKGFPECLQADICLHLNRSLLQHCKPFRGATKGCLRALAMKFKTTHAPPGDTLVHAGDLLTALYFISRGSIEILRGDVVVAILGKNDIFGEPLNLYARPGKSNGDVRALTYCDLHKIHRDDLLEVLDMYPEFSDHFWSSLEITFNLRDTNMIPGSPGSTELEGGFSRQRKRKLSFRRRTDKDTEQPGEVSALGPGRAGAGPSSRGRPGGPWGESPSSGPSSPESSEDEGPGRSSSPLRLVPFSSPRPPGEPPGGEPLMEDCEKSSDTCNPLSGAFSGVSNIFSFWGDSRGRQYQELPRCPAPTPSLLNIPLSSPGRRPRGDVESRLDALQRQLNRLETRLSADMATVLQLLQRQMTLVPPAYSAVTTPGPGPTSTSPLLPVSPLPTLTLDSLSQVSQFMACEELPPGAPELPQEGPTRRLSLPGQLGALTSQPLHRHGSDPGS

CYP 3A4 = CYP 3A4 (Homo sapiens, UniProt P08684); assay: CYP450 inhibition 3A4; type: in vitro ADME
Chain of CYP 3A4 (P08684 whole entry): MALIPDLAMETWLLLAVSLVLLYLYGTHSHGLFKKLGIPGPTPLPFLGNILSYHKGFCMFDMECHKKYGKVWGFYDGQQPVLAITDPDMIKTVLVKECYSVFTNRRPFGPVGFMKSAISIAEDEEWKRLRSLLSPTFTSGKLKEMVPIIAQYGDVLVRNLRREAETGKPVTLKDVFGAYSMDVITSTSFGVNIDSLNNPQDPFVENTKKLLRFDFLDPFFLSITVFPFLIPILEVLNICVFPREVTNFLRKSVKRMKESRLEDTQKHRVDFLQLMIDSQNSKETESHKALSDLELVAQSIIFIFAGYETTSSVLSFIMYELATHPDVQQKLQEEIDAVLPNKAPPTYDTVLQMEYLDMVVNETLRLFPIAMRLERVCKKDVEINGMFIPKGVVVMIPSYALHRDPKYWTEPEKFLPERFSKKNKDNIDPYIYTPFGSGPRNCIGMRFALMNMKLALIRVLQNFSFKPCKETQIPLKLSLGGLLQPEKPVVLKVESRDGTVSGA

CYP 2C9 = CYP 2C9 (Homo sapiens, UniProt P11712); assay: CYP450 inhibition 2C9; type: in vitro ADME
Chain of CYP 2C9 (P11712 whole entry): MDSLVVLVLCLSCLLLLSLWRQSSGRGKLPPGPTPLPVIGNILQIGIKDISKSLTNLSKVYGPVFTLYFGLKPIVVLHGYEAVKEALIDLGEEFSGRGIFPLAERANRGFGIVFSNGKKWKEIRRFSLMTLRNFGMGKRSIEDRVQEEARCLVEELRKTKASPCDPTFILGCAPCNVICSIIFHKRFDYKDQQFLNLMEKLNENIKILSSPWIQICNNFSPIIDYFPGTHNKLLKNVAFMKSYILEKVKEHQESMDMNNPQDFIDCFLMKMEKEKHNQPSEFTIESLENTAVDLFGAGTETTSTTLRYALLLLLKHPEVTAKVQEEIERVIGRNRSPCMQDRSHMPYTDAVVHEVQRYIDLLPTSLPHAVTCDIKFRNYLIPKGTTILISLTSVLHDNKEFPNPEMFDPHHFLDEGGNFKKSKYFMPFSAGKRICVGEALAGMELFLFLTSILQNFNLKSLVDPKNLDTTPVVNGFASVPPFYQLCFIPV

[3] = tested on: 68 GPCRs, ion channels, and transporters; assay: Eurofins Lead Profiling Panel, radioligand binding displacement; conditions: 68 targets, 10 μM
[4] = IV/PO pharmacokinetic study, NHP (cyno); type: in vivo; conditions: for clearance / Vd / half-life / Cmax: cynomolgus monkey, plasma; for clearance / Vd / half-life: iv 1 mg/kg; for clearance: read-out: CLp; for Vd: read-out: Vss; for half-life: read-out: elimination t1/2 (converted); for Cmax / F (%) po: po 1 mg/kg
[5] = IV/PO pharmacokinetic study, dog (beagle); type: in vivo; conditions: for clearance: beagle, dog, iv, read-out: CLp; for clearance / Vd / half-life / Cmax: plasma; for clearance / CLp / Vd / half-life: iv 1 mg/kg (10), 0.5 mg/kg (11); for Vd: read-out: Vss; for half-life: read-out: elimination t1/2 (converted); for Cmax / F (%) po: po 1 mg/kg
Aqueous solubility = type: physicochemical
CYP 2D6 = CYP 2D6 (Homo sapiens, UniProt P10635); assay: CYP450 inhibition 2D6; type: in vitro ADME
Chain of CYP 2D6 (P10635 whole entry): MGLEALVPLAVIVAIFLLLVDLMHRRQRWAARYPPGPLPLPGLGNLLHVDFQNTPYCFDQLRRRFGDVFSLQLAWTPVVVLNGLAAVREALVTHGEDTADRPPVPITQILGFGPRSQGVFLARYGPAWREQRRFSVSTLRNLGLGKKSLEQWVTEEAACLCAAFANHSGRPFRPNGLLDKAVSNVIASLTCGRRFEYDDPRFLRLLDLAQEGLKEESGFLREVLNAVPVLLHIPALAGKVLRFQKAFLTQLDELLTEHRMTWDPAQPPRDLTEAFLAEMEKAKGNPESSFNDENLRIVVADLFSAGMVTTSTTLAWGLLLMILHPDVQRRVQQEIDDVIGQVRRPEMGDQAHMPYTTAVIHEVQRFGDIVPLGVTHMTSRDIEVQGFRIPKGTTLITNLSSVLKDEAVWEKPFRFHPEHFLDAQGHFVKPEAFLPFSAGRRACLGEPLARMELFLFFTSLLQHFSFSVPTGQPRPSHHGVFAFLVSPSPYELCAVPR

[6] = tested on: 5-strains, with and without S9; assay: AMES assay (5-strains, with and without S9); type: cell-based

SMILES	CLint scaled at 1 µM [1] [mL/min/kg]	clearance [2] [mL/min/kg]	IC50 (hTREK-1) [µM]	inhibition at 10 µM (HCN4) [%]	NOAEL at 4 days (in vivo) [mg/kg]	Predicted CLhep human [1] [mL/min/kg]	IC50 (hERG) [µM]	IC50 (CYP 3A4) [µM]	IC50 (CYP 2C9) [µM]	targets with >50% inhibition in Lead Profiling Panel [3]	clearance [4] [mL/min/kg]	Vd [4] [L/kg]	half-life [4] [h]	Cmax [4] [ng/mL]	F (%) po [4] [%]	clearance [5] [mL/min/kg]	CLp [5] [mL/min/kg]	Vd [5] [L/kg]	half-life [5] [h]	Cmax [5] [ng/mL]	also measured
Cc1cc(C#Cc2ccccc2)cnc1NC(=O)c1cc(OC[C@@H]2COCCO2)ccc1Cl [Compound 7, (S)-5-((1,4-Dioxan-2-yl)methoxy)-2-chloro-N-(3-methyl-5-(phenylethynyl)pyridin-2-yl)benzamide]	57	9.43	0.079																		
CC(=O)N1CCC(n2ncc(Cl)c2C(=O)Nc2ncc(C#Cc3ccccc3)cc2C)CC1 [Compound 10, 1-(1-Acetylpiperidin-4-yl)-4-chloro-N-(3-methyl-5-(phenylethynyl)pyridin-2-yl)-1H-pyrazole-5-carboxamide]	6	27.7	0.063	≤ 50	10	4.9	6.7	10.8	6.1	only two targets displayed >50% inhibition	13.3	2.1	3.3	152	34	< 2	1.9	5.9	56	315	F (%) po [5]: 97%; solubility (Aqueous solubility): 31 µM (≈ 14.3 µg/mL); IC50 (CYP 2D6): 10.3 µM; AMES [6]: Negative
CC(=O)N1CC[C@@H](n2ncc(Cl)c2C(=O)Nc2ncc(C#Cc3ccc(F)cc3)cc2C)[C@H](F)C1 [Compound 11, 1-((3R,4R)-1-Acetyl-3-fluoropiperidin-4-yl)-4-chloro-N-(5-((4-fluorophenyl)ethynyl)-3-methylpyridin-2-yl)-1H-pyrazole-5-carboxamide]	10		0.064	≤ 50	6	7.0	4.3	10.5	4.9	only two targets displayed >50% inhibition	6.5	4.4	9.3	260	89	< 2	1.5	7.1	76	263	F (%) po [5]: 100%; solubility (Aqueous solubility): 14 µM (≈ 6.97 µg/mL); IC50 (CYP 2D6): 7 µM; AMES [6]: Negative
Cc1cc(C#Cc2ccccc2)cnc1NC(=O)c1c(Cl)cnn1[C@H]1CCOC1 [Compound 15a, (S)-4-Chloro-N-(3-methyl-5-(phenylethynyl)pyridin-2-yl)-1-(tetrahydrofuran-3-yl)-1H-pyrazole-5-carboxamide]	4	8.9																			
